Counter-ions that a name gives are not always drawn. Like-named read-outs stand apart in the source and are kept apart here.
Columns and labels:
[1] = Prodrug stability in simulated gastric fluid (USP); conditions: 37° C.
Experimental: (§1) The remaining concentrations of the prodrugs were then assayed by HPLC.

[2] = Prodrug stability in simulated intestinal fluid (USP); conditions: 37° C.
Experimental: as §1

[3] = Comparative bioavailability study of guanfacine in monkeys (full pharmacokinetics); assay type: in vivo, cynomolgus monkey; conditions: oral gavage, monkey
Experimental: The characteristics of the test animals are set out in Table 13.
The following pharmacokinetic parameters derived from the plasma analytical data were determined using Win Nonlin;

gut motility = experiment: Charcoal propulsion test (gut motility); assay type: in vivo, rat
Experimental: The effect of a drug on gut motility can be studied by means of the charcoal propulsion test.
The method used was based on that described by Takemori et al. (J. Pharmacol. Exp. Ther. 169:39, 1969). Test treatments were administered orally 60 minutes prior to an oral dose of a 10% suspension of charcoal in 2.5% gum Arabic (2 ml/kg). Twenty minutes after dosing with charcoal, the rats were sacrificed and the entire gastrointestinal tract was removed quickly and carefully. The distance that the charcoal meal had travelled toward the caecum was measured and expressed as a percentage of the total gut length.

[4] = Comparative bioavailability study in monkeys in the fasted or fed state; assay type: in vivo, cynomolgus monkey
Experimental: Five male cynomolgus monkeys were used. Food was withdrawn from animals in fasted groups from the evening of the day prior to dosing until approximately 4 hours after dosing.
The formulations were prepared on the day of dosing and administered orally as soon as practicable up to a maximum of 2 hours after formulation.
Blood samples (0.5 mL) were collected from all animals pre-dose and at 0.5, 1, 2, 3, 4, 6, 8 10, 12, 16 and 24 hours after dosing.
Following processing, the resultant plasma was frozen and analysed by a qualified method. Pharmacokinetic evaluation was performed using a validated pharmacokinetic software package.

[5] = Comparative pharmacokinetic screening study of guanfacine prodrugs in the monkey; conditions: oral gavage
Experimental: Blood samples were taken on 4 sampling occasions at various times up to 6 hours after administration and submitted to analysis for the parent drug and prodrug using a qualified LC-MS-MS assay.

[6] = Pharmacokinetics in rats in hepatic portal and tail veins following oral administration; assay type: in vivo; conditions: rat, equimolar dose
Experimental: Rats were surgically prepared under isofluorane anaesthesia by attaching a silicon catheter to the portal vein then exteriorising it at the nape of the neck with a blood collection port attached.
At each sampling time serial point blood samples (approximately 0.2 mL) were taken simultaneously from the lateral tail vein cannula and the hepatic portal cannula. After collection of the final blood sample each animal was killed by cervical dislocation. Blood samples were collected at 15, 30 minutes and 1, 2, 4, 8 and 24 hours post dose.
Pharmacokinetic parameters in portal and systemic plasma were derived by non-compartmental analysis (linear/logarithmic trapezoidal) using WinNonlin (Version 4.1) software.

[7] = immediate release guanfacine (TENEX); cited from earlier work
[8] = Rattus norvegicus, po, read-out: % inhibition of GIT transit compard to vehicle
[9] = Rattus norvegicus, po, Study 1, oral dose 0.1 mg/kg guanfacine free base equivalents, read-out: % inhibition of GIT transit compard to vehicle
[10] = Rattus norvegicus, po, Study 1, oral dose 0.3 mg/kg guanfacine free base equivalents, read-out: % inhibition of GIT transit compard to vehicle
[11] = Rattus norvegicus, po, Study 1, oral dose 1 mg/kg guanfacine free base equivalents, read-out: % inhibition of GIT transit compard to vehicle
[12] = Rattus norvegicus, po, Study 1, oral dose 3 mg/kg guanfacine free base equivalents, read-out: % inhibition of GIT transit compard to vehicle
[13] = Rattus norvegicus, po, Study 1, oral dose 5 mg/kg guanfacine free base equivalents, read-out: % inhibition of GIT transit compard to vehicle

SMILES	% prodrug remaining following incubation for: 1 h in simulated gastric fluid pH 1.1 [1] [%]	% prodrug remaining following incubation for: 2 h in simulated intestinal fluid pH 6.8 [2] [%]	plasma guanfacine profile (in words) [3]	inhibition at 0.1 mg/kg (gut motility; [8]) [%]	inhibition at 0.3 mg/kg (gut motility; [8]) [%]	inhibition at 1 mg/kg (gut motility; [8]) [%]	prodrug levels in plasma (in words) [5]	inhibition at 0.1 mg/kg (gut motility; [9]) [%]	inhibition at 0.3 mg/kg (gut motility; [10]) [%]	inhibition at 1 mg/kg (gut motility; [11]) [%]	inhibition at 3 mg/kg (gut motility; [12]) [%]	inhibition at 5 mg/kg (gut motility; [13]) [%]	comparative systemic exposure to guanfacine (in words) [6]	other results
CC(C)[C@H](NC(=O)CCCC(=O)NC(=N)NC(=O)Cc1c(Cl)cccc1Cl)C(=O)O [Compound 1, guanfacine-[glutaryl-(S)-valine] amide trifluoroacetate]	80	92	sustained guanfacine concentrations	9	6	45								inhibition at 3 mg/kg (gut motility; [8]): 50%; inhibition at 5 mg/kg (gut motility; [8]): 53%
CC(C)[C@H](N)C(=O)NCCC(=O)NC(=N)NC(=O)Cc1c(Cl)cccc1Cl [Compound 2, guanfacine-β-alanine-(S)-valine amide di-trifluoroacetate]	75	89					detectable prodrug levels in plasma	-3	30	42	42	42		mean Cmax (ng/mL) prodrug ([4]; Fasted, 0.5 mg/kg guanfacine equivalent, oral): BLQ
CC(C)[C@@H](N)C(=O)N[C@@H](CCC(=O)NC(=N)NC(=O)Cc1c(Cl)cccc1Cl)C(=O)O [Compound 5, guanfacine-γ-(S)-glutamic acid-(R)-valine amide di-trifluoroacetate]	86	89	sustained guanfacine concentrations					6	22	48	44	42		inhibition at 1.7 mg/kg (gut motility; Rattus norvegicus, po, Study 1, oral dose 1.7 mg/kg guanfacine free base equivalents, read-out: % inhibition of GIT transit compard to vehicle): 50%
CNCC(=O)N[C@@H](COC(=O)NC(=N)NC(=O)Cc1c(Cl)cccc1Cl)C(=O)O [Compound 61, (S)-serine(guanfacine)-sarcosine carbamate di-trifluoroacetate]	92	96		8	25	31	detectable prodrug levels in plasma						similar	
CNCC(=O)N[C@H](C(=O)O)[C@@H](C)OC(=O)NC(=N)NC(=O)Cc1c(Cl)cccc1Cl [Compound 63, sarcosine-(2S,3R)-threonine(guanfacine) carbamate di-trifluoroacetate]	86	99		0	13	49	detectable prodrug levels in plasma						similar	
N=C(N)NC(=O)Cc1c(Cl)cccc1Cl [Guanfacine, guanfacine, reference compound]								52	55	47				food effect (in words) ([4]; fasted vs fed): apparent absence of a food effect; time at which peak plasma drug levels are reached after dosing [7]: ≥ 1 h; inhibition at 0.03 mg/kg (gut motility; Rattus norvegicus, po, Study 2, oral dose 0.03 mg/kg guanfacine free base equivalents, read-out: % inhibition of GIT transit compard to vehicle): 13%; inhibition at 0.1 mg/kg (gut motility; Rattus norvegicus, po, Study 2, oral dose 0.1 mg/kg guanfacine free base equivalents, read-out: % inhibition of GIT transit compard to vehicle): 41%; inhibition at 0.3 mg/kg (gut motility; Rattus norvegicus, po, Study 2, oral dose 0.3 mg/kg guanfacine free base equivalents, read-out: % inhibition of GIT transit compard to vehicle): 56%; reduction in the distance travelled by the charcoal plug within 20 minutes compared to control group (gut motility; oral, 0.1 mg base/kg): 41-52%
